Measured values from paper PMC10726475, “Atypical N-Alkyl to N-Noralkoxy Switch in a Dual cSRC/BCR-ABL1 Kinase Inhibitor Improves Drug Efflux and hERG Affinity” (ACS Medicinal Chemistry Letters, 2023).
Values after ≈ are worked out from the molar mass of the structure shown. Read-outs that look alike come from different tables or passages of the source. Blank lines part the entries; values can stand above or below the compound they belong to.

Key:
MEG-01 cells = test: Cell viability assay (CellTiter-Glo), MEG-01; assay type: cell-based, human; conditions: read-out: IC50 (72 h), MEG-01 Cell Line, mean ± SEM, n = 3, unadjusted for FBS
SUP-B15 cells = test: Cell viability assay (CellTiter-Glo), SUP-B15; assay type: cell-based, human; conditions: read-out: IC50 (72 h), SUP-B15 Cell Line, mean ± SEM, n = 3, unadjusted for FBS
KU812 cells = test: Cell viability assay (CellTiter-Glo), KU812; assay type: cell-based, human; conditions: read-out: IC50 (72 h), KU812 Cell Line, mean ± SEM, n = 3, unadjusted for FBS
Molt-4 cells = test: Cell viability assay (CellTiter-Glo), Molt-4; assay type: cell-based, human; conditions: BCR-ABL1 negative
CYP2D6 = CYP2D6 (Homo sapiens, UniProt P10635); test: in vitro; conditions: both, microsomes, CYP2D6 Inhibition percentage(%) at Top conc.
P-gp (MDR1) = test: in vitro; conditions: dog, MDCK-MDR1
Caco-2 cells = test: Caco-2 cell permeability
MDCKII-MDR1 cells [1] = test: MDCKII-MDR1 cell permeability
in vitro = conditions: human, Caco-2
MDCKII-MDR1 cells [2] = conditions: dog, MDCK-MDR1
[3] = Plasma protein binding by equilibrium dialysis, rat; assay type: in vitro ADME; conditions: for fu, plasma % / %Unbound: 5 μM, equilibrium dialysis
[4] = Metabolic stability in rat hepatocytes; assay type: in vitro ADME
[5] = Plasma protein binding by equilibrium dialysis, human; assay type: in vitro ADME
[6] = Metabolic stability in rat liver microsomes; assay type: in vitro ADME
[7] = Metabolic stability in human liver microsomes; assay type: in vitro ADME
[8] = Solubility in aqueous buffer at pH 7.4; assay type: physicochemical; conditions: aqueous buffer at pH 7.4, n = 1; read-out: aq sol.
[9] = logD7.4 by shake-flask method; assay type: physicochemical; conditions: pH 7.4
[10] = set-up: method as in NDA application no. 203341 Pharmacology Review(s) page 40; conditions: nude mice, 50 mg/kg po and 5 mg/kg iv dosing, ref NDA application no. 203341 Pharmacology Review(s) page 40; cited from earlier work
[11] = Metabolic stability in human hepatocytes; assay type: in vitro ADME

Sequence of CYP2D6 (P10635 whole entry): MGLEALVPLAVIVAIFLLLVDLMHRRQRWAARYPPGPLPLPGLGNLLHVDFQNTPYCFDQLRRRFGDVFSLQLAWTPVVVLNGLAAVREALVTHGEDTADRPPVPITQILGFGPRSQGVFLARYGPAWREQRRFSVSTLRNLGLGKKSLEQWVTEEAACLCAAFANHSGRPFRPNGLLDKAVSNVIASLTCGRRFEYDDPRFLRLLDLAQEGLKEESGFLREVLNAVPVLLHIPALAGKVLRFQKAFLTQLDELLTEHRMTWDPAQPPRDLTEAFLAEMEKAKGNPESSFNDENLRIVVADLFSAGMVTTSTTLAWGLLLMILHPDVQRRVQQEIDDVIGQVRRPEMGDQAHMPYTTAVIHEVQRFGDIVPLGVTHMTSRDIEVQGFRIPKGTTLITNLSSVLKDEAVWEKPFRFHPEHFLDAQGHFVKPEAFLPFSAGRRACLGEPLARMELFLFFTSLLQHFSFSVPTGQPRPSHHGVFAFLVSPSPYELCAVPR

Structure (SMILES): N.N.[Cl][Pt][Cl] [Cisplatin, cisplatin]
- IC50 (MEG-01 cells): 5100 ± 318 nM
- IC50 (SUP-B15 cells): 987 ± 36 nM
- IC50 (KU812 cells): 1500 ± 103 nM
- IC50 (Molt-4 cells; read-out: IC50 (72 h), Molt-4 Cell Line, 72 h): 1340 ± 89 nM

- inhibition at 20 min (CYP2D6): 91.7%
Structure (SMILES): Fc1ccc([C@@H]2CCNC[C@H]2COc2ccc3c(c2)OCO3)cc1 [Paroxetine]

- Papp A→B at 2 h, 1 μM (P-gp (MDR1)): 0.26 ×10⁻⁶ cm/s
- Papp B→A at 2 h, 1 μM (P-gp (MDR1)): 10.2 ×10⁻⁶ cm/s
- efflux ratio at 2 h, 1 μM (P-gp (MDR1)): 38.6
- recovery (P-gp (MDR1)): 96.3%
- Recovery% (BL-AP) (Caco-2 cells): 101.40%
- Recovery% (BL-AP) (MDCKII-MDR1 cells [1]): 92.45%
- Papp A→B at 2 h, 5 μM (in vitro): 0.34 ×10⁻⁶ cm/s
- Papp B→A at 2 h, 5 μM (in vitro): 15.6 ×10⁻⁶ cm/s
- efflux ratio at 2 h, 5 μM (in vitro): 45.6
- recovery (in vitro): 103%
Structure (SMILES): C[C@H]1O[C@@H](O[C@H]2[C@@H](O)C[C@H](O[C@H]3[C@@H](O)C[C@H](O[C@H]4CC[C@@]5(C)[C@H](CC[C@@H]6[C@@H]5C[C@@H](O)[C@]5(C)[C@@H](C7=CC(=O)OC7)CC[C@]65O)C4)O[C@@H]3C)O[C@@H]2C)C[C@H](O)[C@@H]1O [Digoxin]

- Papp A→B at 2 h, 1 μM (P-gp (MDR1)): 27.9 ×10⁻⁶ cm/s
- Papp B→A at 2 h, 1 μM (P-gp (MDR1)): 31 ×10⁻⁶ cm/s
- efflux ratio at 2 h, 1 μM (P-gp (MDR1)): 1.11
- recovery (P-gp (MDR1)): 99.9%
- Recovery% (BL-AP) (Caco-2 cells): 100.41%
- Papp A→B at 2 h, 5 μM (in vitro): 23.1 ×10⁻⁶ cm/s
- Papp B→A at 2 h, 5 μM (in vitro): 21.8 ×10⁻⁶ cm/s
- efflux ratio at 2 h, 5 μM (in vitro): 0.95
- recovery (in vitro): 106%
- Recovery% (BL-AP) (MDCKII-MDR1 cells [2]): 96.11%
Structure (SMILES): COCCc1ccc(OCC(O)CNC(C)C)cc1 (centres unmarked) [Metoprolol]

Structure (SMILES): COc1cc(Nc2c(C#N)cnc3cc(OCCCN4CCN(C)CC4)c(OC)cc23)c(Cl)cc1Cl [bosutinib]
- fu, plasma % / %Unbound [3]: 7.2%
- fu, plasma % / %Unbound ([3]; listed as Bosutinib): 7.20%
- recovery ([3]; both sexes, SD): 91.1%
- remaining at 6 h, 5 μM ([3]; both sexes, SD): 90.7%
- fraction unbound at 5 μM ([3]; both sexes, SD, read-out: fu, plasma % / %Unbound (converted)): 0.072
- recovery (P-gp (MDR1)): 56%
- Remaining Percentages, 0.5 min [4]: 100.00%
- Remaining Percentages, 15 min [4]: 50.17%
- Remaining Percentages, 30 min [4]: 21.78%
- Remaining Percentages, 60 min [4]: 5.83%
- Remaining Percentages, 90 min [4]: 1.83%
- Remaining Percentages, 120 min [4]: 0.73%
- half-life at 2 h ([4]; male, SD): 13.4 min
- hepatocyte CLint at 2 h ([4]; male, SD): 103 µL/min/1e6 cells
- fu, plasma % / %Unbound ([5]; 5 μM, equilibrium dialysis): 4.53%
- recovery ([5]; both sexes): 94%
- fraction unbound at 6 h, 5 µM ([5]; both sexes, 5 μM, equilibrium dialysis, read-out: fu, plasma % / %Unbound): 0.045
- fraction unbound at 5 μM ([5]; both sexes, read-out: %Bound (converted)): 0.0453
- Recovery% (BL-AP) (Caco-2 cells): 70.73%
- Recovery% (BL-AP) (MDCKII-MDR1 cells [1]): 65.52%
- Remaining Percentage, 0.5 min ([6]; +Cofactors): 100.00%
- Remaining Percentage, 15 min ([6]; +Cofactors): 14.79%
- Remaining Percentage, 30 min ([6]; +Cofactors): 5.02%
- Remaining Percentage, 45 min ([6]; +Cofactors): 2.62%
- Remaining Percentage, 0.5 min ([6]; -Cofactors): 100.00%
- half-life at 1 h ([6]; male, SD, pooled): 5.3 min
- microsomal CLint at 1 h ([6]; male, SD, pooled, read-out: LMClint): 264 µL/min/mg
- Remaining Percentage, 0.5 min ([7]; +Cofactors): 100.00%
- Remaining Percentage, 15 min ([7]; +Cofactors): 12.40%
- Remaining Percentage, 30 min ([7]; +Cofactors): 2.94%
- Remaining Percentage, 45 min ([7]; +Cofactors): 1.16%
- Remaining Percentage, 60 min ([7]; +Cofactors): BLOD
- Remaining Percentage, 0.5 min ([7]; -Cofactors): 100.00%
- Remaining Percentage, 60 min ([7]; -Cofactors): 91.23%
- half-life at 1 h ([7]; both sexes, pooled): 4.8 min
- microsomal CLint at 1 h ([7]; both sexes, pooled, read-out: LMClint): 288 µL/min/mg
- IC50 (Molt-4 cells; Homo sapiens, MOLT-4, read-out: IC50, Molt-4): > 2000 nM
- solubility [8]: 14 µM (≈ 7.43 µg/mL)
- logD at 2 h [9]: 3.1
- AUCinf [10]: 11 677 h·nM
- Cmax [10]: 1510 nM
- Remaining Percentages, 0.5 min [11]: 100.00%
- Remaining Percentages, 15 min [11]: 73.99%
- Remaining Percentages, 30 min [11]: 79.28%
- Remaining Percentages, 60 min [11]: 53.95%
- Remaining Percentages, 90 min [11]: 34.15%
- Remaining Percentages, 120 min [11]: 20.73%
- half-life at 2 h ([11]; both sexes): 54.9 min
- hepatocyte CLint at 2 h ([11]; both sexes): 25.3 µL/min/1e6 cells
